# In patent US10450288B2, “Hydroxy formamide derivatives and their use” (GLAXOSMITHKLINE INTELLECTUAL PROPERTY (NO.2) LIMITED, priority 2014, dated 2019):
# System: human cardiac fibroblasts
# Experiment: Cell-based inhibition assay of generation of procollagen I C-terminal propeptide (PICP), PICP ELISA
# Conditions: Cardiac fibroblast; human cardiac fibroblasts, crowding media, 24 to 48 hr, PICP ELISA of media; read-out: pIC50, PICP cellular inhibition assay (converted)
# Protocol: Cell-Based Inhibition Assay of Generation of Procollagen I C-Terminal Propeptide (PICP) and Mature Collagen:
# An adaptation of the collagen deposition assay described by Chen, C. Z. C., et al., British Journal of Pharmacology, 2009, 158, 1196-1209 was used to examine effect of compounds on procollagen I processing and collagen deposition. In the adapted assay, human cardiac fibroblasts were utilized. Processing of procollagen I was determined by a PICP ELISA assay and deposition of mature collagen was determined by immunostaining.
# Human cardiac fibroblasts were cultured and maintained until passage 6 in FGM-3 media (Lonza, #CC-3132) in a 37° C. humidified incubator with 5% CO2. They were then seeded in 96-well black wall, clear bottom plates at 10,000 to 15,000 cells per well in eagle's minimum essential media (EMEM, ATCC #30-2003) containing 10% fetal bovine serum (FBS, Life Technologies #10082147), 1% Glutamax (Life Technologies #35050061) and 1% Penicillin and Streptomycin (Life Technologies #15070063). These cultures were placed in 37° C. incubator. The next day, media were removed by aspiration and cells were rinsed with phosphate buffered saline. Crowding media (also called ficoll media) was prepared by adding 112.5 mg/ml of ficoll70 and 75 mg/ml ficoll400 (GE healthcare #17-0310-10 and 17-0300-10, respectively), 100 μM ascorbic acid, 1% Glutamax and 1% Penicillin and Streptomycin to EMEM media. Test compounds (dissolved in DMSO) were diluted into crowding media and then added to the cells. Final concentration of DMSO in crowding media was less than 0.3%. Cells were treated for 24 to 48 hr in a 37° C. incubator. At the end of the treatment period, cell media were collected. The level of PICP in the media were determined by a PICP ELISA assay (Quidel #8003) following the manufacturer's protocol. Potencies of test compounds were calculated by fitting PICP levels, relative to untreated controls, to log (inhibitor) vs. response equation using Graphpad Prism software 5.0 and expressed as pIC50.
row,Structure (SMILES),IC50
1,"CCCCC[C@@H](C(=O)NCNC(=O)c1ccc(-c2ccc(C(=O)O)c(OCC)c2)o1)[C@@H](CC)N(O)C=O [Example 1, 2-ethoxy-4-(5-((((R)-2-((R)-1-(N-hydroxyformamido)propyl)heptanamido)methyl)carbamoyl)furan-2-yl)benzoic acid]",< 3.98 µM
2,"CCCCC[C@H](CN(O)C=O)C(=O)NCNC(=O)c1ccc(-c2cccc(S(N)(=O)=O)c2)o1 [Example 12, (R)-N-((2-((N-hydroxyformamido)methyl)heptanamido)methyl)-5-(3-sulfamoylphenyl)furan-2-carboxamide]",< 3.98 µM
3,"CCCCC[C@H](CN(O)C=O)C(=O)NCNC(=O)c1ccc(-c2cccc(OC(F)(F)F)c2)o1 [Example 13, (R)-N-((2-((N-hydroxyformamido)methyl)heptanamido)methyl)-5-(3-(trifluoromethoxy)phenyl) furan-2-carboxamide carboxamide]",< 3.98 µM
4,"CCCCC[C@H](CN(O)C=O)C(=O)NCNC(=O)c1ccc(-c2cccc(OCC)c2)o1 [Example 14, (R)-5-(3-ethoxyphenyl)-N-((2-((N-hydroxyformamido)methyl)heptanamido)methyl) furan-2-carboxamide]",< 3.98 µM
5,"CCCCC[C@H](CN(O)C=O)C(=O)NCNC(=O)c1ccc(-c2cccc(C(=O)OC)c2)o1 [Example 16, (R)-methyl 3-(5-(((2-((N-hydroxyformamido)methyl)heptanamido)methyl)carbamoyl)furan-2-yl)benzoate]",< 3.98 µM
6,"CCCCC[C@H](CN(O)C=O)C(=O)NCNC(=O)c1ccc(-c2cc(OC)ccn2)o1 [Example 18, (R)-N-((2-((N-hydroxyformamido)methyl)heptanamido)methyl)-5-(4-methoxypyridin-2-yl)furan-2-carboxamide]",< 3.98 µM
7,"CCCCC[C@H](CN(O)C=O)C(=O)NCNC(=O)c1ccc(-c2cccc(S(=O)(=O)NC)c2)o1 [Example 22, (R)-N-((2-((N-hydroxyformamido)methyl)heptanamido)methyl)-5-(3-(N-methylsulfamoyl)phenyl) furan-2-carboxamide]",< 3.98 µM
8,"CCCCC[C@H](CN(O)C=O)C(=O)NCNC(=O)c1ccc(-c2cccc(OCC(F)(F)F)c2)o1 [Example 23, (R)-N-((2-((N-hydroxyformamido)methyl)heptanamido)methyl)-5-(3-(2,2,2-trifluoroethoxy)phenyl) furan-2-carboxamide]",< 3.98 µM
9,"CCCCC[C@H](CN(O)C=O)C(=O)NCNC(=O)c1ccc(-c2cccc(OC(C)C)c2)o1 [Example 25, (R)-N-((2-((N-hydroxyformamido)methyl)heptanamido)methyl)-5-(3-isopropoxyphenyl)furan-2-carboxamide]",< 3.98 µM
10,CCCCC[C@H](CN(O)C=O)C(=O)NCNC(=O)c1ccc(-c2cc(OCC)cc(C(=O)OC)c2)o1 [Example 26],< 3.98 µM
11,"CCCCC[C@H](CN(O)C=O)C(=O)NCNC(=O)c1ccc(-c2cccc(N(C)C)c2)o1 [Example 27, (R)-5-(3-(dimethylamino)phenyl)-N-((2-((N-hydroxyformamido)methyl)heptanamido)methyl) furan-2-carboxamide]",< 3.98 µM
12,"CCCCC[C@H](CN(O)C=O)C(=O)NCNC(=O)c1ccc(-c2cccc(S(=O)(=O)NC(=O)CC)c2)o1 [Example 28, (R)-N-((2-((N-hydroxyformamido)methyl)heptanamido)methyl)-5-(3-(N-propionylsulfamoyl)phenyl)furan-2-carboxamide]",< 3.98 µM
13,"CCCCC[C@H](CN(O)C=O)C(=O)NCNC(=O)c1ccc(-c2cc(OCC)cc(C(=O)O)c2)o1 [Example 30, (R)-3-ethoxy-5-(5-(((2-((N-hydroxyformamido)methyl)heptanamido)methyl)carbamoyl)furan-2-yl)benzoic acid]",< 3.98 µM
14,"CCCCC[C@H](CN(O)C=O)C(=O)NCNC(=O)c1ccc(-c2cc(OC)cc(C(=O)NCCN)c2)o1 [Example 33, (R)-5-(3-((2-aminoethyl)carbamoyl)-5-methoxyphenyl)-N-((2-((N-hydroxyformamido)methyl)heptanamido)methyl) furan-2-carboxamide]",< 3.98 µM
15,"CCCCC[C@H](CN(O)C=O)C(=O)NCNC(=O)c1ccc(-c2cc(OCC)cc(C(=O)NCCN)c2)o1 [Example 34, (R)-5-(3-((2-aminoethyl)carbamoyl)-5-ethoxyphenyl)-N-((2-((N-hydroxyformamido)methyl)heptanamido)methyl) furan-2-carboxamide]",< 3.98 µM
16,"CCCCC[C@H](CN(O)C=O)C(=O)NCNC(=O)c1ccc(-c2cccc(OC(F)F)c2)o1 [Example 35, (R)-5-(3-(difluoromethoxy)phenyl)-N-((2-((N hydroxyformamido)methyl)heptanamido)methyl) furan-2-carboxamide]",< 3.98 µM
17,"CCCCC[C@@H](C(=O)NCNC(=O)c1ccc(-c2cc(OCC)cc(C(=O)NCCN)c2)o1)[C@@H](CC)N(O)C=O [Example 40, 5-(3-((2-aminoethyl)carbamoyl)-5-ethoxyphenyl)-N-(((R)-2-((R)-1-(N-hydroxyformamido)propyl)heptanamido)methyl) furan-2-carboxamide]",< 3.98 µM
18,"CCCCC[C@@H](C(=O)NCNC(=O)c1ccc(-c2ccc(CC(=O)O)c(OCC)c2)o1)[C@@H](CC)N(O)C=O [Example 41, 2-(2-ethoxy-4-(5-((((R)-2-((R)-1-(N-hydroxyformamido)propyl)heptanamido)methyl)carbamoyl)furan-2-yl)phenyl)acetic acid]",< 3.98 µM
19,"CCCCC[C@@H](C(=O)NCNC(=O)c1ccc(-c2ccc(CC(=O)O)cc2)o1)[C@@H](CC)N(O)C=O [Example 42, 2-(4-(5-((((R)-2-((R)-1-(N-hydroxyformamido)propyl)heptanamido)methyl)carbamoyl)furan-2-yl)phenyl)acetic acid]",< 3.98 µM
20,"CCCCC[C@@H](C(=O)NCNC(=O)c1ccc(-c2ccc(C(C)(C)C(=O)O)cc2)o1)[C@@H](CC)N(O)C=O [Example 43, 2-(4-(5-((((R)-2-((R)-1-(N-hydroxyformamido)propyl)heptanamido)methyl)carbamoyl)furan-2-yl)phenyl)-2-methylpropanoic acid]",< 3.98 µM
21,"CCCCC[C@@H](C(=O)NCNC(=O)c1ccc(-c2ccc(C3(C(=O)O)CC3)cc2)o1)[C@@H](CC)N(O)C=O [Example 44, 1-(4-(5-((((R)-2-((R)-1-(N-hydroxyformamido)propyl)heptanamido)methyl)carbamoyl)furan-2-yl)phenyl)cyclopropane-carboxylic acid]",< 3.98 µM
22,"CCCCC[C@@H](C(=O)NCNC(=O)c1ccc(-c2cc(OCC)cc(C(=O)N[C@@H](CCC(=O)O)C(=O)OC(C)(C)C)c2)o1)[C@@H](CC)N(O)C=O [Example 45, (S)-5-(tert-butoxy)-4-(3-ethoxy-5-(5-((((R)-2-((R)-1-(N-hydroxyformamido)propyl)heptanamido)methyl)carbamoyl)furan-2-yl)benzamido)-5-oxopentanoic acid]",< 3.98 µM

# Same assay, conditions: Homo sapiens, Cardiac fibroblast, read-out: pIC50, PICP cellular inhibition assay (converted)
row,Structure (SMILES),IC50
1,"CCCCC[C@H](CN(O)C=O)C(=O)NCNC(=O)c1ccc(-c2cc(OC)cc(C(=O)O)c2)o1 [Example 29, (R)-3-(5-(((2-((N-hydroxyformamido)methyl)heptanamido)methyl)carbamoyl)furan-2-yl)-5-methoxybenzoic acid]",< 3.98 µM
